# Test results reported in patent US8952024B2, “Herbicidal pyrimidone derivatives” (E I du Pont de Nemours and Company, priority 2009, dated 2015).
# Read-outs that look alike come from different tables or passages of the source.
# What was measured:
# Assay type in all cases: in vivo
# [1] = tested on: barnyardgrass (Echinochloa crus-galli); test: Test A pre-/postemergence plant response; details: for pest or weed control at 125 g/ha / pest or weed control at 500 g/ha: Echinochloa crus-galli, 240 h
# In short: (§1)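 Greenhouse pots of loam/sand received directed preemergence soil sprays or postemergence sprays (plants 2–10 cm, 1–2 leaf stage), compounds formulated in non-phytotoxic solvent with surfactant. Injury was rated visually versus untreated controls after about ten days on a 0 (no effect) to 100 (complete control) scale.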
# [2] = tested on: pigweed (Amaranthus retroflexus); test: Test A pre-/postemergence plant response; details: for pest or weed control at 125 g/ha / pest or weed control at 500 g/ha: Amaranthus retroflexus, 240 h
# In short: as §1
# [3] = tested on: downy bromegrass (Bromus tectorum); test: Test B pre-/postemergence plant response; details: for Plant response rating, Bromegrass, Downy: Postemergence
# In short: (§2)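 Steps: sow seed in loam–sand soil and spray preemergence, or grow plants in peat-based medium to 1–4 leaves (2–18 cm) and spray postemergence; formulation is non-phytotoxic solvent plus surfactant; hold in greenhouse 13–15 days; score visually vs controls, 0 = no effect, 100 = complete control.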
# [4] = tested on: Italian ryegrass (Lolium multiflorum); test: Test B pre-/postemergence plant response; details: Postemergence
# In short: as §2
# [5] = tested on: large crabgrass (Digitaria sanguinalis); test: Test B pre-/postemergence plant response; details: Postemergence
# In short: as §2
# [6] = tested on: morningglory (Ipomoea coccinea); test: Test B pre-/postemergence plant response; details: Postemergence
# In short: as §2
# [7] = tested on: wheat (Triticum aestivum); test: Test B pre-/postemergence plant response; details: Postemergence
# In short: as §2
# [8] = tested on: goosegrass (Eleusine indica); test: Test B pre-/postemergence plant response; details: Postemergence
# In short: as §2
# [9] = tested on: blackgrass (Alopecurus myosuroides); test: Test B pre-/postemergence plant response; details: for Plant response rating, Blackgrass: Postemergence
# In short: as §2
# [10] = tested on: velvetleaf (Abutilon theophrasti); test: Test B pre-/postemergence plant response; details: Postemergence
# In short: as §2
# [11] = tested on: woolly cupgrass (Eriochloa villosa); test: Test B pre-/postemergence plant response; details: Postemergence
# In short: as §2
# [12] = tested on: yellow nutsedge (Cyperus esculentus); test: Test B pre-/postemergence plant response; details: Postemergence
# In short: as §2
# [13] = pre-emergence, Preemergence, 125 g ai/ha, 0 to 100 scale, 0 = no effect, 100 = complete control, read-out: Plant response rating, Barnyardgrass
# [14] = pre-emergence, Preemergence, 125 g ai/ha, 0 to 100 scale, 0 = no effect, 100 = complete control, read-out: Plant response rating, Pigweed
# [15] = post-emergence, Postemergence, 125 g ai/ha, visual injury, 0 to 100 scale (0 no effect, 100 complete control), approx. ten days, read-out: Barnyardgrass plant response rating
# [16] = post-emergence, Postemergence, 500 g ai/ha, 0 to 100 scale, 0 = no effect, 100 = complete control, approx. ten days, read-out: Plant response rating, Barnyardgrass
# [17] = pre-emergence, Preemergence, 500 g ai/ha, visual injury, 0 to 100 scale (0 no effect, 100 complete control), approx. ten days, read-out: Plant response rating, Barnyardgrass
# [18] = post-emergence, Postemergence, 125 g ai/ha, visual injury, 0 to 100 scale (0 no effect, 100 complete control), approx. ten days, read-out: Pigweed plant response rating
# [19] = post-emergence, Postemergence, 500 g ai/ha, 0 to 100 scale, 0 = no effect, 100 = complete control, approx. ten days, read-out: Plant response rating, Pigweed
# [20] = Postemergence, 125 g ai/ha, visual injury, 0 to 100 scale (0 no effect, 100 complete control), approx. ten days
# [21] = Postemergence, 500 g ai/ha, 0 to 100 scale, 0 = no effect, 100 = complete control, approx. ten days
# [22] = Preemergence, 125 g ai/ha, 0 to 100 scale, 0 = no effect, 100 = complete control
# [23] = Preemergence, 500 g ai/ha, visual injury, 0 to 100 scale (0 no effect, 100 complete control), approx. ten days
# [24] = 62 g ai/ha, postemergence, 0 is no effect, 100 is complete control, 13 to 15 days
# [25] = 31 g ai/ha, 0 to 100 scale (0 no effect, 100 complete control)
# [26] = 125 g ai/ha, scale 0 to 100 (0 no effect, 100 complete control)
# [27] = 250 g ai/ha, scale 0 to 100 (0 no effect, 100 complete control), 13 to 15 days
# [28] = Postemergence, 125 g ai/ha, 0 to 100 scale where 0 is no effect and 100 is complete control
# [29] = Postemergence, 500 g ai/ha, visual injury, 0 to 100 scale (0 no effect, 100 complete control), approx. ten days
# [30] = Preemergence, 500 g ai/ha, 0 to 100 scale, 0 = no effect, 100 = complete control
compound,measurement,setting,value
"O=C(c1cnoc1C1CC1)c1cnc(-c2ccccc2)n(-c2ccccc2)c1=O [Compound 223, 5-[(5-cyclopropyl-4-isoxazolyl)-carbonyl]-2,3-diphenyl-4(3H)-pyrimidinone]",pest or weed control at 125 g/ha,"[1]; post-emergence, Postemergence, 125 g ai/ha, 0 to 100 scale where 0 is no effect and 100 is complete control, read-out: Plant response rating, Barnyardgrass",0%
same,pest or weed control at 500 g/ha,"[1]; post-emergence, Postemergence, 500 g ai/ha, visual injury, 0 to 100 scale (0 no effect, 100 complete control), approx. ten days, read-out: Barnyardgrass plant response rating",50%
same,pest or weed control at 125 g/ha,[1]; [13],0%
same,pest or weed control at 500 g/ha,"[1]; pre-emergence, Preemergence, 500 g ai/ha, 0 to 100 scale, 0 = no effect, 100 = complete control, read-out: Plant response rating, Barnyardgrass",70%
same,pest or weed control at 125 g/ha,"[2]; post-emergence, Postemergence, 125 g ai/ha, 0 to 100 scale where 0 is no effect and 100 is complete control, read-out: Plant response rating, Pigweed",50%
same,pest or weed control at 500 g/ha,"[2]; post-emergence, Postemergence, 500 g ai/ha, visual injury, 0 to 100 scale (0 no effect, 100 complete control), approx. ten days, read-out: Pigweed plant response rating",70%
same,pest or weed control at 125 g/ha,[2]; [14],60%
same,pest or weed control at 500 g/ha,"[2]; pre-emergence, Preemergence, 500 g ai/ha, 0 to 100 scale, 0 = no effect, 100 = complete control, read-out: Plant response rating, Pigweed",90%
"CCn1ncc(C(=O)c2cnc(-c3ccccc3)n(Cc3ccccc3)c2=O)c1OS(=O)(=O)c1ccc(C)cc1 [Compound 21, 5-[[1-ethyl-5-[[(4-methylphenyl)sulfonyl]oxy]-1H-pyrazol-4-yl]carbonyl]-2-phenyl-3-(phenylmethyl)-4(3H)-pyrimidinone]",pest or weed control at 125 g/ha,[1]; [15],0%
same,pest or weed control at 500 g/ha,[1]; [16],10%
same,pest or weed control at 125 g/ha,[1]; [13],0%
same,pest or weed control at 500 g/ha,[1]; [17],0%
same,pest or weed control at 125 g/ha,[2]; [18],0%
same,pest or weed control at 500 g/ha,[2]; [19],50%
same,pest or weed control at 500 g/ha,"[2]; pre-emergence, Preemergence, 500 g ai/ha, visual injury, 0 to 100 scale (0 no effect, 100 complete control), approx. ten days, read-out: Plant response rating, Pigweed",70%
COc1cccc(-n2c(-c3ccccc3)ncc(C(=O)C3=C(O)CCCC3=O)c2=O)c1 [Compound 19],Barnyardgrass plant response rating,[1]; [20],0
same,"Plant response rating, Barnyardgrass",[1]; [21],70
same,"Plant response rating, Barnyardgrass",[1]; [22],10
same,"Plant response rating, Barnyardgrass",[1]; [23],90
same,Pigweed plant response rating,[2]; [20],80
same,"Plant response rating, Pigweed",[2]; [21],100
same,"Plant response rating, Pigweed",[2]; [22],80
same,"Plant response rating, Pigweed",[2]; [23],90
CCCn1c(-c2cc(Cl)cc(Cl)c2)ncc(C(=O)C2=C(O)CCCC2=O)c1=O [Compound 173],"Bromegrass, Downy plant response rating (0 to 100 scale)",[3]; [24],25
same,"Plant response rating, Bromegrass, Downy",[3]; [25],5
same,"Plant response rating, Bromegrass, Downy",[3]; [26],40
same,"Plant response rating, Bromegrass, Downy",[3]; [27],70
same,"Plant response rating, Ryegrass, Italian",[4]; [25],0
same,"Plant response rating, Ryegrass, Italian",[4]; [26],30
same,"Plant response rating, Ryegrass, Italian",[4]; [27],30
same,"Plant response rating, Crabgrass, Large",[5]; [25],70
same,"Plant response rating, Crabgrass, Large",[5]; [26],95
same,"Plant response rating, Crabgrass, Large",[5]; [27],100
same,"Plant response rating, Morningglory",[6]; [25],75
same,"Plant response rating, Morningglory",[6]; [26],80
same,"Plant response rating, Morningglory",[6]; [27],95
same,"Plant response rating, Wheat",[7]; [25],10
same,"Plant response rating, Wheat",[7]; [26],40
same,"Plant response rating, Wheat",[7]; [27],50
same,"Plant response rating, Goosegrass",[8]; [25],80
same,"Plant response rating, Goosegrass",[8]; [26],95
same,"Plant response rating, Goosegrass",[8]; [27],100
same,Blackgrass plant response rating (0 to 100 scale),[9]; [24],10
same,"Plant response rating, Blackgrass",[9]; [25],5
same,"Plant response rating, Blackgrass",[9]; [26],30
same,"Plant response rating, Blackgrass",[9]; [27],50
same,"Plant response rating, Velvetleaf",[10]; [25],100
same,"Plant response rating, Velvetleaf",[10]; [26],100
same,"Plant response rating, Velvetleaf",[10]; [27],100
same,"Plant response rating, Cupgrass, Woolly",[11]; [25],85
same,"Plant response rating, Cupgrass, Woolly",[11]; [26],100
same,"Plant response rating, Cupgrass, Woolly",[11]; [27],100
same,"Plant response rating, Nutsedge, Yellow",[12]; [25],45
same,"Plant response rating, Nutsedge, Yellow",[12]; [26],60
same,"Plant response rating, Nutsedge, Yellow",[12]; [27],75
same,"Plant response rating, Barnyardgrass",[1]; [28],90
same,Barnyardgrass plant response rating,[1]; [29],100
same,"Plant response rating, Barnyardgrass",[1]; [22],0
same,"Plant response rating, Barnyardgrass",[1]; [30],60
same,"Plant response rating, Pigweed",[2]; [28],100
same,Pigweed plant response rating,[2]; [29],100
same,"Plant response rating, Pigweed",[2]; [22],50
same,"Plant response rating, Pigweed",[2]; [30],90
"CCn1ncc(C(=O)c2cnc(-c3ccccc3)n(Cc3ccccc3)c2=O)c1O [Compound 20, 5-[(1-ethyl-5-hydroxy-1H-pyrazol-4-yl)carbonyl]-2-phenyl-3-(phenylmethyl)-4(3H)-pyrimidinone]",pest or weed control at 125 g/ha,[1]; [15],0%
same,pest or weed control at 500 g/ha,[1]; [16],10%
same,pest or weed control at 125 g/ha,[1]; [13],0%
same,pest or weed control at 500 g/ha,[1]; [17],20%
same,pest or weed control at 125 g/ha,[2]; [18],10%
same,pest or weed control at 500 g/ha,[2]; [19],50%
same,pest or weed control at 125 g/ha,[2]; [14],0%
